How the values were obtained:
[1] = tested on: monocotyledonous and dicotyledonous weeds; assay: Experiment on weeding effect in post-emergence stage (weeds); assay type: in vivo; details: 600 g/ha active ingredient plus water 450 kg/ha, 3 weeks after application, fresh weight control rate; for Amaranthus retroflexus activity level (growth control rate): fomesafen-resistant Amaranthus retroflexus
In short: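 Greenhouse pot-grown weeds and crops sprayed post-emergence 2–3 weeks after sowing with compound in acetone/Tween 80/water. Fresh-weight growth control scored after 3 weeks on a 0–5 scale (5: >85%, 0: <5%).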

[2] = tested on: major crops (wheat, corn, rice, soybean, cotton, oilseed rape, millet, sorghum); assay: Experiment on weeding effect in post-emergence stage (crops); assay type: in vivo; details: 600 g/ha active ingredient plus water 450 kg/ha, 3 weeks after application; for corn plant damage level (growth control rate): crop corn; for rice plant damage level (growth control rate): crop rice; for soybean plant damage level (growth control rate): crop soybean
In short: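 Weed and crop seeds were sown in soil-filled pots, covered with 0.5–2 cm soil and grown in a greenhouse. Plants were sprayed 2–3 weeks after sowing using a spray tower, with compound dissolved in acetone plus Tween 80 and diluted in water. Effect was expressed as fresh-weight growth control rate.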

| Compound | Amaranthus retroflexus activity level (growth control rate) [1] | Digitaria sanguinalis activity level (growth control rate) [1] | Echinochloa crus-galli activity level (growth control rate) [1] | Setaria viridis activity level (growth control rate) [1] | corn plant damage level (growth control rate) [2] | rice plant damage level (growth control rate) [2] | soybean plant damage level (growth control rate) [2] |
| --- | --- | --- | --- | --- | --- | --- | --- |
| CCCCOC(=O)N1c2c(F)cc(F)cc2C(=O)N(C(C)C)S1(=O)=O [Compound 220] | 4 (Level 4: growth control rate is greater than or equal to 60% and less than 85%) | 3 (Level 3: growth control rate is greater than or equal to 40% and less than 60%) | 5 (Level 5: growth control rate is above 85%) | 5 (Level 5: growth control rate is above 85%) | 1 (Level 1: growth control rate is greater than or equal to 500 and less than 200%) |  |  |
| CCOC(=O)OC(C)N1c2c(Cl)cc(F)cc2C(=O)N(C(C)C)S1(=O)=O (centres unmarked) [Compound 153] | 5 (Level 5: growth control rate is above 85%) | 5 (Level 5: growth control rate is above 85%) | 5 (Level 5: growth control rate is above 85%) | 5 (Level 5: growth control rate is above 85%) | 0 (Level 0: growth control rate is less than 5%) | 0 (Level 0: growth control rate is less than 5%) | 1 (Level 1: growth control rate is greater than or equal to 500 and less than 200%) |
| COc1ccc(CN2c3ccc(F)cc3C(=O)N(C(C)C)S2(=O)=O)cc1 [Compound 197] | 3 (Level 3: growth control rate is greater than or equal to 40% and less than 60%) |  |  |  | 0 (Level 0: growth control rate is less than 5%) | 0 (Level 0: growth control rate is less than 5%) | 0 (Level 0: growth control rate is less than 5%) |
| CC(C)N1C(=O)c2cc(F)cc(F)c2NS1(=O)=O [Compound 142] | 5 (Level 5: growth control rate is above 85%) | 5 (Level 5: growth control rate is above 85%) | 5 (Level 5: growth control rate is above 85%) | 5 (Level 5: growth control rate is above 85%) | 1 (Level 1: growth control rate is greater than or equal to 500 and less than 200%) | 1 (Level 1: growth control rate is greater than or equal to 500 and less than 200%) | 1 (Level 1: growth control rate is greater than or equal to 500 and less than 200%) |
| CCOC(=O)OC(C)N1c2c(Br)cc(F)cc2C(=O)N(C(C)C)S1(=O)=O (centres unmarked) [Compound 155] | 5 (Level 5: growth control rate is above 85%) | 5 (Level 5: growth control rate is above 85%) | 5 (Level 5: growth control rate is above 85%) | 5 (Level 5: growth control rate is above 85%) | 0 (Level 0: growth control rate is less than 5%) | 0 (Level 0: growth control rate is less than 5%) | 1 (Level 1: growth control rate is greater than or equal to 500 and less than 200%) |
| CCN1C(=O)c2cc(F)ccc2NS1(=O)=O [Compound 157] | 3 (Level 3: growth control rate is greater than or equal to 40% and less than 60%) |  |  |  | 0 (Level 0: growth control rate is less than 5%) | 0 (Level 0: growth control rate is less than 5%) | 0 (Level 0: growth control rate is less than 5%) |
| CCCC(C)N1C(=O)c2cc(F)ccc2NS1(=O)=O (centres unmarked) [Compound 163] | 3 (Level 3: growth control rate is greater than or equal to 40% and less than 60%) |  |  |  |  | 0 (Level 0: growth control rate is less than 5%) |  |
| CC(C)N1C(=O)c2cc(F)cnc2NS1(=O)=O [Compound 75] | 4 (Level 4: growth control rate is greater than or equal to 60% and less than 85%) |  | 3 (Level 3: growth control rate is greater than or equal to 40% and less than 60%) | 3 (Level 3: growth control rate is greater than or equal to 40% and less than 60%) | 1 (Level 1: growth control rate is greater than or equal to 500 and less than 200%) | 1 (Level 1: growth control rate is greater than or equal to 500 and less than 200%) |  |
| CCOC(=O)OC(C)N1c2c(F)cc(F)cc2C(=O)N(C(C)C)S1(=O)=O (centres unmarked) [Compound 151] | 5 (Level 5: growth control rate is above 85%) | 5 (Level 5: growth control rate is above 85%) | 5 (Level 5: growth control rate is above 85%) | 5 (Level 5: growth control rate is above 85%) | 1 (Level 1: growth control rate is greater than or equal to 500 and less than 200%) | 1 (Level 1: growth control rate is greater than or equal to 500 and less than 200%) | 1 (Level 1: growth control rate is greater than or equal to 500 and less than 200%) |
| CCC(=O)N1c2ccc(F)cc2C(=O)N(C(C)C)S1(=O)=O [Compound 179] | 5 (Level 5: growth control rate is above 85%) |  | 5 (Level 5: growth control rate is above 85%) | 3 (Level 3: growth control rate is greater than or equal to 40% and less than 60%) | 0 (Level 0: growth control rate is less than 5%) | 1 (Level 1: growth control rate is greater than or equal to 500 and less than 200%) | 1 (Level 1: growth control rate is greater than or equal to 500 and less than 200%) |
| CC(C)N1C(=O)c2cc(F)c(Cl)cc2NS1(=O)=O [Compound 147] | 3 (Level 3: growth control rate is greater than or equal to 40% and less than 60%) |  |  |  | 0 (Level 0: growth control rate is less than 5%) | 0 (Level 0: growth control rate is less than 5%) |  |
| CCCCC(=O)N1c2ccc(F)cc2C(=O)N(C(C)C)S1(=O)=O [Compound 181] | 5 (Level 5: growth control rate is above 85%) |  |  |  | 0 (Level 0: growth control rate is less than 5%) | 0 (Level 0: growth control rate is less than 5%) | 0 (Level 0: growth control rate is less than 5%) |
| CC(C)N1C(=O)c2cc(F)ccc2NS1(=O)=O [Compound 2] | 5 (Level 5: growth control rate is above 85%) | 3 (Level 3: growth control rate is greater than or equal to 40% and less than 60%) | 4 (Level 4: growth control rate is greater than or equal to 60% and less than 85%) | 4 (Level 4: growth control rate is greater than or equal to 60% and less than 85%) | 1 (Level 1: growth control rate is greater than or equal to 500 and less than 200%) | 0 (Level 0: growth control rate is less than 5%) | 1 (Level 1: growth control rate is greater than or equal to 500 and less than 200%) |
| C=CC(=O)N1c2c(F)cc(F)cc2C(=O)N(C(C)C)S1(=O)=O [Compound 216] | 4 (Level 4: growth control rate is greater than or equal to 60% and less than 85%) | 3 (Level 3: growth control rate is greater than or equal to 40% and less than 60%) | 3 (Level 3: growth control rate is greater than or equal to 40% and less than 60%) | 4 (Level 4: growth control rate is greater than or equal to 60% and less than 85%) | 0 (Level 0: growth control rate is less than 5%) | 0 (Level 0: growth control rate is less than 5%) |  |

Reference: patent US12441695B2, “Substituted thiadiazinone dioxide and preparation method therefor, herbicidal composition, and application therefor” (Qingdao Kingagroot Chemical Compound Co., Ltd., priority 2019, dated 2025)
